{
  "source": "paper PMC11173382",
  "about": "“In Vitro Investigations into the Potential Drug Interactions of Pseudoginsenoside DQ Mediated by Cytochrome P450 and Human Drug Transporters” (Molecules, 2024)",
  "assay_type_in_all_cases": "in vitro ADME",
  "key": {"CYP1A2": {"target": "T1, CYP1A2 (Homo sapiens, UniProt P05177)", "T1 construct": "tissue Corning 452117; host or cells: human liver microsomes", "T1 sequence (P05177 1-516)": "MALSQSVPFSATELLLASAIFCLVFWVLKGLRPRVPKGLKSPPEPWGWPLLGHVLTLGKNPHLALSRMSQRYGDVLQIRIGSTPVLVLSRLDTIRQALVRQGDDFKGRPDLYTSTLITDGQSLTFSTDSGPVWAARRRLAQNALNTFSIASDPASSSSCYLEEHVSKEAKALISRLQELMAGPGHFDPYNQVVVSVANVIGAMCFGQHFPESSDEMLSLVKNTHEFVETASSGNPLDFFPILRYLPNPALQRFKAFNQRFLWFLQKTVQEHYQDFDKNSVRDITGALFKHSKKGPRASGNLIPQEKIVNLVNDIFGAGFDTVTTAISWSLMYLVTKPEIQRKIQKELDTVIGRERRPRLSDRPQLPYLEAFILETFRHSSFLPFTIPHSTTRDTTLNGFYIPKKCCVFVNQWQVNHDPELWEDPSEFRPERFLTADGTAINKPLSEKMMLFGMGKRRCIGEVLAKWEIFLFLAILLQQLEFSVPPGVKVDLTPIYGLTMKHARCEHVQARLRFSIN", "experiment": "CYP450 inhibition assay in human liver microsomes, CYP1A2", "method": "(§1) To evaluate the reliability and reproducibility of the CYP450 inhibition assay, we measured the inhibitory effects of selected positive control inhibitors of each CYP450 enzyme in human liver microsomes (HLM, Table 1, Figure 2). The potency of inhibition was estimated by observing the alteration in concentration of metabolites of CYP450 substrates (Table 1).\n(§2) Reagents preparation. […] The stock solution of PDQ (10 mM) was prepared with methanol and further diluted to the range of 3 µM to 3 mM with methanol to ensure that the solvent of different PDQ samples contained the same amount (1%) of methanol.\n(§3) The stock solutions of the positive control inhibitors and the probe substrates of CYP450 enzymes were prepared in methanol.\n(§4) CYP450 inhibition assay. […] The assay was conducted in polypropylene 96-well plates (2.2 mL/well, Apricot Designs Inc., Covina, CA, USA).\nThe total volume of the reaction is 200 μL. The HLM mixtures (102 μL) containing individual probe substrates (Table 3), KH2PO4 buffer (100 mM, pH 7.4), and either PDQ or the positive control inhibitors (Table 3) were incubated for 10 min at 37 °C in a shaking incubator. Reactions were initiated by adding 98 μL NADPH (final concentration is 1.3 mM NADPH, 3 mM MgCl2 in 100 mM KH2PO4 buffer). The HLM reaction mixtures were shaken at 37 °C for various times (Table 4). The reaction time of CYP3A4 (midazolam), CYP2C19 and CYP2D6 were 3, 20 and 20 min, respectively, while the reactions of other CYP enzymes were terminated after 10 min. The reactions were quenched by adding 200 μL acetonitrile containing 3% formic acid and specific internal standards (Table 4). After shaking at 1000 rpm for 10 min, the reaction mixtures were centrifuged at 4000 rpm for 20 min. Supernatants were diluted with ultrapure water (Table 4) and shaken for 10 min at 1000 rpm. […] The substrates and analytes were analyzed by LC-MS/MS (API4000, Applied Biosystems, Singapore; HPLC, Shimadzu, Japan). […]\n(§5) Data analysis. […] The IC50 was determined by fitting the dependence of the relative remaining activity (y = Vi/V0) to the following three-parameter equation (Equation (1)). […]"}, "CYP2C9": {"target": "T2, CYP2C9 (Homo sapiens, UniProt P11712)", "T2 construct": "tissue Corning 452117; host or cells: human liver microsomes", "T2 sequence (P11712 whole entry)": "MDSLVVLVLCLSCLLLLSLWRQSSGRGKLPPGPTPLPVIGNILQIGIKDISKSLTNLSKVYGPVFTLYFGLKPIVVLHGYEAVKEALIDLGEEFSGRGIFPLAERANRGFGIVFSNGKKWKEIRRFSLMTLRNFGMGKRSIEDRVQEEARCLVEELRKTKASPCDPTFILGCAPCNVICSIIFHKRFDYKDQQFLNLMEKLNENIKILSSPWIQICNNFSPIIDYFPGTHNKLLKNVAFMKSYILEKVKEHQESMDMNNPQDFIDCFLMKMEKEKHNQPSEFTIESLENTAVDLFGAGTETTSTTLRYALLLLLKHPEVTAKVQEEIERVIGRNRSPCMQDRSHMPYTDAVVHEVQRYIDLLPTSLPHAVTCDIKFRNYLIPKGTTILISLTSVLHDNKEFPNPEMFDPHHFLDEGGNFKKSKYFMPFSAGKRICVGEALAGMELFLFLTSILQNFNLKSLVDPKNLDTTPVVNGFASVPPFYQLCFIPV", "experiment": "CYP450 inhibition assay in human liver microsomes, CYP2C9", "conditions": "HLM 0.1 mg/mL; probe diclofenac 10 µM; 10 min", "method": "as §1, §2, §3, §4\nThe total volume of the reaction is 200 μL. […] The substrates and analytes were analyzed by LC-MS/MS (API4000, Applied Biosystems, Singapore; HPLC, Shimadzu, Japan). […]\nas §5"}, "hOAT3": {"target": "T3, hOAT3 (Homo sapiens, UniProt Q8TCC7)", "T3 sequence (Q8TCC7 1-542)": "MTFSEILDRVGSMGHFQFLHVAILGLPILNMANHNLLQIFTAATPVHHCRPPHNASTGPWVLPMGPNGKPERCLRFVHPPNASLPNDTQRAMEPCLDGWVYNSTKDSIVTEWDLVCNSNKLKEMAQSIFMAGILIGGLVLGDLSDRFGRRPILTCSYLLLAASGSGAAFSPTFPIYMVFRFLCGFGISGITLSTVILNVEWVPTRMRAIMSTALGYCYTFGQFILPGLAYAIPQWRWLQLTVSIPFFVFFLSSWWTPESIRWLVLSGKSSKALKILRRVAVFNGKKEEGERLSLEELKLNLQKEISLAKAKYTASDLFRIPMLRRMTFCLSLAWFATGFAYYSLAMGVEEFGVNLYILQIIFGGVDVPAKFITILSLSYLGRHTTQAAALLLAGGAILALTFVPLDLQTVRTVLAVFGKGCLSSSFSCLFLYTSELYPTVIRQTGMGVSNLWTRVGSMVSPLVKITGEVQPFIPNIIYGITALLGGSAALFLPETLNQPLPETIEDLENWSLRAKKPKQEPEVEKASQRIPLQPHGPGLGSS", "experiment": "Substrates uptake assay, S2-OAT3 cells (3H-ES)", "conditions": "3H-ES 0.05 µM, 2 min"}},
  "data": [
    {"smiles": "CC(C)(O)[C@@H]1CC[C@@](C)([C@H]2CC[C@]3(C)[C@@H]2[C@H](O)C[C@@H]2[C@@]4(C)CC[C@H](O)C(C)(C)[C@@H]4CC[C@]23C)O1", "note": "[PDQ, (20S,24S)-dammar-20,24-epoxy-3β, 12β, 25-triol]", "values": [
      {"measurement": "IC50", "setting": "CYP1A2; HLM 0.1 mg/mL, probe phenacetin 75 µM, 10 min", "value": "> 100", "unit": "µM"},
      {"measurement": "effect on CYP1A2-catalyzed de-ethylation", "setting": "CYP1A2; PDQ within the range of 0.03 to 30.0 μM, HLM", "value": "activated"},
      {"measurement": "percentage mean control activity of CYP1A2", "setting": "CYP1A2; highest tested dose of PDQ (100 μM), HLM", "value": 100.8, "unit": "%"},
      {"measurement": "IC50", "setting": "CYP2C9", "value": 11.7, "unit": "µM"},
      {"measurement": "IC50", "setting": "hOAT3", "value": "> 30", "unit": "µM"}
    ]}
  ]
}
